Data reported in patent US20260226048A1, “MULTI-CYCLIC IRAK AND FLT3 INHIBITING COMPOUNDS AND USES THEREOF” (CHILDREN'S HOSPITAL MEDICAL CENTER, priority 2023, published 2026).

What was measured:
MOLM14 D835Y cells = test: MOLM14 D835Y cell viability assay (Cell Titer Glo); assay type: cell-based; settings: Homo sapiens, MOLM-14, 48 h, cell viability, Cell Titer Glo, 48 hours; read-out: MOLM14 D835Y IC50
In short: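 MOLM14 cells with FLT3 D835Y or F691L kinase-domain resistance mutations seeded at 1000 cells/well and exposed to compound for 48 h under standard incubator conditions. Viability read by CellTiter-Glo luminescence after 15 min at room temperature.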

MOLM14 F691L cells = test: MOLM14 F691L cell viability assay (Cell Titer Glo); assay type: cell-based; settings: Homo sapiens, MOLM-14; cell viability, Cell Titer Glo, 48 hours; read-out: MOLM14 F691L IC50
Method: Both cell lines have activated FLT3 receptors, each of which carry additional resistance mutations in the kinase domain (D835Y and F691L, respectively).
For viability/cytotoxicity assessments, cells were seeded into 1536-well white polystyrene tissue culture-treated Greiner plates using a Multidrop Combi dispenser (ThermoFisher), in final volume 5 μL of growth media per well, at a density of 1000 cells per well. […] Plates were incubated for 48 hours at standard incubator conditions covered by a stainless steel gasketed lid to prevent evaporation. 48 hours post compound addition, 3 μL of Cell Titer Glo (Promega) were added to each well and plates were incubated at room temperature for 15 minutes with the stainless-steel lid in place. Luminescence readings were taken using a Viewlux imager (PerkinElmer) with a 2 second exposure time per plate.

IRAK4 = target: T1, IRAK4 (Homo sapiens, UniProt Q9NWZ3); test: RBC HotSpot Kinase Assay, IRAK4; assay type: biochemical; set-up: purchased Reaction Biology (RBC HotSpot); settings: isolated kinase enzyme, 33P-ATP, P81 filter-binding
T1 sequence (Q9NWZ3 1-460): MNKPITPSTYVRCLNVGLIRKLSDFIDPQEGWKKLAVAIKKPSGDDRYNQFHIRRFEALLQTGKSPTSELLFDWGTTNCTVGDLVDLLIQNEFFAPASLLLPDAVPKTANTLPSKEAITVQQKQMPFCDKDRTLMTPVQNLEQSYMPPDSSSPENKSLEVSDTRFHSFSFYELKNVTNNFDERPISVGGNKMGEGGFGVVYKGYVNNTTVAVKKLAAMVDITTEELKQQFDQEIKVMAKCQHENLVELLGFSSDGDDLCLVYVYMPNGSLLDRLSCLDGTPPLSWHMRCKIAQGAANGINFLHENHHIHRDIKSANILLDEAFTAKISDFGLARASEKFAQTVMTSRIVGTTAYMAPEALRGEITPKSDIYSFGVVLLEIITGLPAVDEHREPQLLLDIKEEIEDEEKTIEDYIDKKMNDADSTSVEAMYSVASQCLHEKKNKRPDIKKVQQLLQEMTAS
In short: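 Radiometric filter-binding activity assay with isolated recombinant kinase (construct may be truncated or catalytic domain only) in 20 mM Hepes pH 7.5, 10 mM MgCl2, 1 mM EGTA, 2 mM DTT, 1% DMSO. Compound preincubated 20 min with kinase/substrate; reaction started with 33P-ATP, run 2 h at room temperature.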

FLT3 = target: T2, FLT3 (Homo sapiens, UniProt P36888); test: RBC HotSpot Kinase Assay, FLT3; assay type: biochemical; set-up: purchased Reaction Biology (RBC HotSpot); settings: isolated kinase enzyme, 33P-ATP, P81 filter-binding
T2 sequence (P36888 27-993): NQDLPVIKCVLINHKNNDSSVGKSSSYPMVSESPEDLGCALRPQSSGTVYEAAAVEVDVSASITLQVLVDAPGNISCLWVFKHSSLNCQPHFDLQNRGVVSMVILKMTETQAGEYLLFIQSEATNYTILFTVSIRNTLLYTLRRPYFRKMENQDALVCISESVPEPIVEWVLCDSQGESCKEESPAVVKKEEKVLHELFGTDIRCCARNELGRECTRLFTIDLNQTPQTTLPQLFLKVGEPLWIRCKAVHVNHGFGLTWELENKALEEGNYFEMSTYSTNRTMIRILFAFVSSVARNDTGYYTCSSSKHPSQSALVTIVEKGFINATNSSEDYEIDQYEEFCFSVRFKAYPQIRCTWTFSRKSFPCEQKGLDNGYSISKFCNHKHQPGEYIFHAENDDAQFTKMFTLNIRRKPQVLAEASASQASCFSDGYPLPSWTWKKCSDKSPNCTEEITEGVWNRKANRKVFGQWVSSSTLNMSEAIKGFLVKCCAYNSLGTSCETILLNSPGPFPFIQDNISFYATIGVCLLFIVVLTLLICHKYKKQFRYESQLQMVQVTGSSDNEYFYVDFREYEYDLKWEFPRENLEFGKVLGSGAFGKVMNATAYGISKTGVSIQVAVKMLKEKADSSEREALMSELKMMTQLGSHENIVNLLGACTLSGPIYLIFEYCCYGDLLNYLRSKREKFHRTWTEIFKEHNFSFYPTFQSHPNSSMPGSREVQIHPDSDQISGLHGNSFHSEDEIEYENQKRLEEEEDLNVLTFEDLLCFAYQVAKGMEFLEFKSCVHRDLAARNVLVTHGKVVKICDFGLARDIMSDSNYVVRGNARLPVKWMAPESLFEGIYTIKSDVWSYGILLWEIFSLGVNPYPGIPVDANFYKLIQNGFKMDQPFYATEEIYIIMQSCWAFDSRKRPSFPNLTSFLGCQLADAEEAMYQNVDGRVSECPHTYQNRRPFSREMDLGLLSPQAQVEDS
In short: (§1)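 Radiometric HotSpot assay of catalytic activity with isolated recombinant kinase, possibly truncated or kinase domain only. Buffer: 20 mM Hepes pH 7.5, 10 mM MgCl2, 1 mM EGTA, 0.01% Brij35, 0.02 mg/ml BSA, 0.1 mM Na3VO4, 2 mM DTT, 1% DMSO, with cofactors specific to each kinase.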

IRAK1 = target: T3, IRAK1 (Homo sapiens, UniProt P51617); test: RBC HotSpot Kinase Assay, IRAK1; assay type: biochemical; settings: isolated kinase enzyme, 33P-ATP, P81 filter-binding
T3 construct: purchased Reaction Biology (RBC HotSpot)
In short: as §1

T3 sequence (P51617 whole entry): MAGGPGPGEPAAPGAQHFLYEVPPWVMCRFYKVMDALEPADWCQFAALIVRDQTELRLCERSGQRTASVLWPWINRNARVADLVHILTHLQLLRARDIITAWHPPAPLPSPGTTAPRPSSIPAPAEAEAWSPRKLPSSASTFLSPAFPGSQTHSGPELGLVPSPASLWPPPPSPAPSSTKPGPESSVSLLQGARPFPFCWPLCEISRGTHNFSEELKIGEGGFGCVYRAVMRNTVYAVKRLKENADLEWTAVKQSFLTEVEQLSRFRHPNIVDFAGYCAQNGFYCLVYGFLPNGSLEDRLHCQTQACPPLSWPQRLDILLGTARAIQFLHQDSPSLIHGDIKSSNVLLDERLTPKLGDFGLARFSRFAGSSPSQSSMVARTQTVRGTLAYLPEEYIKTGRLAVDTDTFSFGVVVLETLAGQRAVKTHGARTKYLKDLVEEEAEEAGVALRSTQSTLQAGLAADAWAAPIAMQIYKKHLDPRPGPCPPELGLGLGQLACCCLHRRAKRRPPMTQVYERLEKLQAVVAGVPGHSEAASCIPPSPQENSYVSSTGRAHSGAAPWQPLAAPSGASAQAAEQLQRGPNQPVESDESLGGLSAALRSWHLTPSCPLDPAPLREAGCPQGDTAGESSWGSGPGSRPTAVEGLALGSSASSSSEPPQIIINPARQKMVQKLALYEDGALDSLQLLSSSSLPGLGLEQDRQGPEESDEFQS

| SMILES | IC50 (MOLM14 D835Y cells) | IC50 (MOLM14 F691L cells) | IC50 (IRAK4) | IC50 (FLT3) | IC50 (IRAK1) |
| --- | --- | --- | --- | --- | --- |
| COc1cc2ncc(-c3ccnc(N[C@@H]4CCCNC4)n3)n2nc1C1CCCCC1 [Compound 87a, (R)-4-(6-cyclohexyl-7-methoxyimidazo[1,2-b]pyridazin-3-yl)-N-(piperidin-3-yl)pyrimidin-2-amine] | 28 nM | 252 nM | 3 nM | < 0.5 nM | 26 nM |
| COc1cc2ncc(-c3ccnc(N[C@H]4CNCC[C@@H]4F)n3)n2nc1C1CCCCC1 [Compound 88a, 4-(6-cyclohexyl-7-methoxyimidazo[1,2-b]pyridazin-3-yl)-N-((3S,4S)-4-fluoropiperidin-3-yl)pyrimidin-2-amine] | 25 nM | 179 nM | 4 nM | < 0.5 nM | 13 nM |
| COc1cc2ncc(-c3ccnc(N[C@H]4CNC[C@@H]4F)n3)n2nc1C12CC(C1)C2 [Compound 89a, 4-(6-(bicyclo[1.1.1]pentan-1-yl)-7-methoxyimidazo[1,2-b]pyridazin-3-yl)-N-((3S,4S)-4-fluoropyrrolidin-3-yl)pyrimidin-2-amine] | 18 nM | 160 nM | 4 nM | < 0.5 nM | 44 nM |
| COc1cc2ncc(-c3ccnc(N[C@@H]4CCCNC4)n3)n2nc1C12CC(C1)C2 [Compound 90a, (R)-4-(6-(bicyclo[1.1.1]pentan-1-yl)-7-methoxyimidazo[1,2-b]pyridazin-3-yl)-N-(piperidin-3-yl)pyrimidin-2-amine] | 50 nM | 449 nM | 9 nM | < 0.5 nM | 85 nM |
| COc1cc2ncc(-c3ccnc(N[C@H]4CNCC[C@@H]4F)n3)n2nc1C12CC(C1)C2 [Compound 91a, 4-(6-(bicyclo[1.1.1]pentan-1-yl)-7-methoxyimidazo[1,2-b]pyridazin-3-yl)-N-((3S,4S)-4-fluoropiperidin-3-yl)pyrimidin-2-amine] | 28 nM | 283 nM | 5 nM | < 0.5 nM | 45 nM |
| COc1cc2ncc(-c3nc(N[C@H]4CNC[C@@H]4F)ncc3F)n2nc1C1COC1 [Compound 93a, 5-fluoro-N-((3S,4S)-4-fluoropyrrolidin-3-yl)-4-(7-methoxy-6-(oxetan-3-yl)imidazo[1,2-b]pyridazin-3-yl)pyrimidin-2-amine] | 13 nM | 142 nM | < 0.5 nM | < 0.5 nM | 5 nM |
| COc1cc2ncc(-c3ccnc(N[C@H]4CNC[C@@H]4F)n3)n2nc1C1COC1 [Compound 95a, N-((3S,4S)-4-fluoropyrrolidin-3-yl)-4-(7-methoxy-6-(oxetan-3-yl)imidazo[1,2-b]pyridazin-3-yl)pyrimidin-2-amine] | 113 nM | 2000 nM | 6 nM | 0.7 nM | 300 nM |
| COc1cc2ncc(-c3ccnc(N[C@@H]4CCCNC4)n3)n2nc1C1COC1 [Compound 96a, (R)-4-(7-methoxy-6-(oxetan-3-yl)imidazo[1,2-b]pyridazin-3-yl)-N-(piperidin-3-yl)pyrimidin-2-amine] | 16 nM | 160 nM | 62 nM | 0.5 nM | 1790 nM |
| COc1cc2ncc(-c3ccnc(N[C@H]4CNCC[C@@H]4F)n3)n2nc1C1COC1 [Compound 97a, N-((3S,4S)-4-fluoropiperidin-3-yl)-4-(7-methoxy-6-(oxetan-3-yl)imidazo[1,2-b]pyridazin-3-yl)pyrimidin-2-amine] | 32 nM | 318 nM | 4 nM | 0.7 nM | 361 nM |
| CC(C)(O)c1cn2c(-c3nc(N[C@H]4CNC[C@@H]4F)ncc3F)cnc2cn1 [Compound 98a, 2-(3-(5-fluoro-2-(((3S,4S)-4-fluoropyrrolidin-3-yl)amino)pyrimidin-4-yl)imidazo[1,2-a]pyrazin-6-yl)propan-2-ol] | 113 nM | 2520 nM | 2 nM | 1 nM | 46 nM |
| CC(C)(O)c1cn2c(-c3nc(N[C@@H]4CCCNC4)ncc3F)cnc2cn1 [Compound 99a, (R)-2-(3-(5-fluoro-2-(piperidin-3-ylamino)pyrimidin-4-yl)imidazo[1,2-a]pyrazin-6-yl)propan-2-ol] | 142 nM | 1420 nM | 11 nM | 3 nM | 44 nM |
| COc1cc2ncc(-c3nc(N[C@H]4CNC[C@@H]4F)ncc3Cl)n2nc1C1CC1 [Compound 101a, 5-chloro-4-(6-cyclopropyl-7-methoxyimidazo[1,2-b]pyridazin-3-yl)-N-((3S,4S)-4-fluoropyrrolidin-3-yl)pyrimidin-2-amine] | 113 nM | 711 nM | 1 nM | 0.8 nM | 24 nM |
| COc1cc2ncc(-c3nc(N[C@@H]4CCCNC4)ncc3Cl)n2nc1C1CC1 [Compound 102a, (R)-5-chloro-4-(6-cyclopropyl-7-methoxyimidazo[1,2-b]pyridazin-3-yl)-N-(piperidin-3-yl)pyrimidin-2-amine] | 23 nM | 71 nM | 2 nM | < 0.5 nM | 81 nM |
| COc1cc2ncc(-c3nc(N[C@H]4CNCC[C@@H]4F)ncc3Cl)n2nc1C1CC1 [Compound 103a, 5-chloro-4-(6-cyclopropyl-7-methoxyimidazo[1,2-b]pyridazin-3-yl)-N-((3S,4S)-4-fluoropiperidin-3-yl)pyrimidin-2-amine] | 71 nM | 201 nM | 3 nM | 0.7 nM | 179 nM |
| COc1cnc(N[C@@H]2CCCNC2)nc1-c1cnc2cc(OC)c(C3CC3)nn12 [Compound 105a, (R)-4-(6-cyclopropyl-7-methoxyimidazo[1,2-b]pyridazin-3-yl)-5-methoxy-N-(piperidin-3-yl)pyrimidin-2-amine] | 711 nM | 6340 nM | 259 nM | 33 nM | > 10000 nM |
| COc1cc2ncc(-c3nc(N[C@H]4CNC[C@@H]4F)ncc3F)n2nc1N1CCCC1=O [Compound 107a, 1-(3-(5-fluoro-2-(((3S,4S)-4-fluoropyrrolidin-3-yl)amino)pyrimidin-4-yl)-7-methoxyimidazo[1,2-b]pyridazin-6-yl)pyrrolidin-2-one] | 80 nM | 1130 nM | 20 nM | 0.6 nM | 102 nM |
